US11485744B2, “High penetration prodrug compositions of antimicrobials and antimicrobial-related compounds” (priority 2009, dated 2022)

Tests used:
[1] = In vitro penetration across isolated human skin in modified Franz cells
Protocol: Penetration rates of HPPs and their parent drugs through human skin were measured in vitro by modified Franz cells. A Franz cell had two chambers, the top sample chamber and the bottom receiving chamber. The human skin tissue (360-400 μm thick) that separated the top and the receiving chambers was isolated from the anterior or posterior thigh areas.
A test compound (2 mL, 10% in 0.2 M phosphate buffer, pH 7.4) was added to the sample chamber of a Franz cell. The receiving chamber contained 10 ml of 0.2 M phosphate buffer which was stirred at 600 rpm. The amount of the tested compound penetrating the skin was determined by high-performance liquid chromatography (HPLC) method.

[2] = Conversion of HPPs to parent drugs in human plasma (half life); type: in vitro ADME; settings: for half-life at 9.1 mg/mL: pH 7.4
Protocol: HPPs of antimicrobials or antimicrobial-related compounds converted to the parent antimicrobials or antimicrobial-related compounds quickly in good yield in human plasma.
A HPP of antimicrobial or antimicrobial-related compound (10 mg) was dissolved in 0.1 ml of 0.2M pH 7.4 phosphate buffer. 1 ml of human plasma, preheated to 37° C., was added into the mixture. The mixture was kept in a water bath at 37° C., and at every 2 min intervals 0.2 ml of samples were withdrawn and added to 0.4 ml of methanol to precipitate the plasma protein.

[3] = tested on: methicillin-resistant Staphylococcus aureus (MRSA); assay: MIC against MRSA; type: cell-based; settings: Table 6a
[4] = mouse, in vivo
Protocol: In vivo rates of penetration of HPPs of beta-lactam antibiotics through skin and blood-brain barrier of intact hairless mice were studied. […] After 2 hours, the mice were killed. 5 ml of methanol was added to 1 g of homogenized blood, liver, kidney, muscle, or brain. The samples were centrifuged for 5 min and analyzed by HPLC (Table 2).

CCN(CC)CCOC(=O)C1=C(COC(C)=O)CSC2C(NC(=O)C(=NOC)c3csc(NC(C)=O)n3)C(=O)N12.Cl (stereo not drawn) [3-[(acetyloxy)methyl]-7-[[(2-acetylamino-4-thiazolyl)(methoxyimino)acetyl]amino]-8-oxo-5-thia-1-azabicyclo[4.2.0]oct-2-ene-2-carboxylic acid 2-diethylaminoethyl ester hydrochloride]
In vitro Penetration Rate (apparent flux), HPPs ([1]; human, 10 %, pH 7.4): 0.73 ± 0.06 mg/cm^2/h | half-life at 9.1 mg/mL ([2]; human, plasma): 10 min

COc1cccc(OC)c1C(=O)NC1C(=O)N2C1SC(C)(C)C2C(=O)OCC1CCCN1.Cl (stereo not drawn) [methicillin-PME, 6-(2,6-dimethoxybenzamido)penicillinic acid 2-pyrrolidinemethyl ester hydrochloride]
MIC [3]: 10 µg/mL

CCN(CC)CCOC(=O)C1N2C(=O)C(NC(=O)c3c(-c4ccccc4Cl)noc3C)C2SC1(C)C.Cl (stereo not drawn) [6-[3-(o-chlorophenyl)-5-methyl-4-isoxazolecarboxamido]penicillinic acid 2-diethylaminoethyl ester hydrochloride]
Amount of parent drug found in Blood [4]: 25 ± 8 µg/g | Amount of parent drug found in Brain [4]: 9 ± 5 µg/g | Amount of parent drug found in Kidney [4]: 12 ± 7 µg/g | Amount of parent drug found in Liver [4]: 14 ± 6 µg/g | Amount of parent drug found in Muscel [4]: 20 ± 7 µg/g | Half life of HPPs in plasma ([2]; human, plasma): 8 ± 1 min

CCN(CC)CCOC(=O)C1=C(COC)CSC2C(NC(=O)/C(=N\OC)c3csc(NC(C)=O)n3)C(=O)N12.Cl (stereo not drawn) [7-[2-(2-acetylamino-4-thiazolyl)-2-((Z)-methoxyimino)acetamido]-3-(methoxymethyl)-8-oxo-5-thia-1-azabicyclo[4.2.0]oct-2-ene-2-carboxylic acid 2-diethylaminoethyl ester hydrochloride]
In vitro Penetration Rate (apparent flux), HPPs ([1]; human, 10 %, pH 7.4): 0.51 ± 0.03 mg/cm^2/h | half-life at 9.1 mg/mL ([2]; human, plasma): 8 min

C=CC1=C(C(=O)OCCN(CC)CC)N2C(=O)C(NC(=O)/C(=N\OCC(=O)OCC)c3csc(NC(C)=O)n3)C2SC1.Cl (stereo not drawn) [7-[2-(2-acetylamino-4-thiazolyl)-2-((Z)-ethoxycarbonylmethoxy)imino]acetamido]-3-(vinyl)-8-oxo-5-thia-1-azabicyclo[4.2.0]oct-2-ene-2-carboxylic acid 2-diethylaminoethyl ester hydrochloride]
In vitro Penetration Rate (apparent flux), HPPs ([1]; pH 7.4): 0.58 ± 0.05 mg/cm^2/h | Half life of HPPs in plasma ([2]; human plasma, 37° C.): 9 ± 1 min

CCN(CC)CCOC(=O)C1=C(COC(N)=O)CSC2N1C(=O)C2(NC(=O)Cc1cccs1)OC.Cl (stereo not drawn) [3-[[(aminocarbonyl)oxy]methyl]-7-methoxy-8-oxo-7-[(2-thienylacetyl)amino]-5-thia-1-azabicyclo[4.2.0]oct-2-ene-2-carboxylic acid 2-diethylaminoethyl ester hydrochloride]
In vitro Penetration Rate (apparent flux), HPPs ([1]; human, 10 %, pH 7.4): 0.61 ± 0.05 mg/cm^2/h | half-life at 9.1 mg/mL ([2]; human, plasma): 7 min

CCN(CC)CCOC(=O)C1=C(COC(C)=O)CSC2C(NC(=O)Cc3cccs3)C(=O)N12.Cl (stereo not drawn) [7-(2-thienylacetamido)cephalosporanic acid 2-diethylaminoethyl ester hydrochloride]
In vitro Penetration Rate (apparent flux), HPPs ([1]; pH 7.4): 0.62 ± 0.06 mg/cm^2/h | Half life of HPPs in plasma ([2]; human plasma, 37° C.): 9 ± 1 min

CCN(CC)CCOC(=O)C1N2C(=O)C(NC(=O)[C@H](NC(=O)N3CCN(CC)C(=O)C3=O)c3ccccc3)C2SC1(C)C.Cl (stereo partly drawn) [6-D(−)-α-(4-ethyl-2,3-dioxo-1-piperazinylcarbonylamino)-α-phenylacetamidopenicillinic acid 2-diethylaminoethyl ester hydrochloride]
In vitro Penetration Rate (apparent flux), HPPs ([1]; pH 7.4): 0.74 ± 0.08 mg/cm^2/h | Half life of HPPs in plasma ([2]; human plasma, 37° C.): 15 ± 1 min

3-[[(aminocarbonyl)oxy]methyl]-7-[[2-furanyl(methoxyimino)acetyl]amino]-8-oxo-5-thia-1-azabicyclo[4.2.0]oct-2-ene-2-carboxylic acid 2-diethylaminoethyl ester hydrochloride
In vitro Penetration Rate (apparent flux), HPPs ([1]; Table 1a, isolated human skin, Franz cells, 10% in 0.2 M phosphate buffer pH 7.4, n=5): 0.67 ± 0.04 mg/cm^2/h | Half life of HPPs in plasma ([2]; human plasma, 37° C.): 8 ± 1 min

CCN(CC)CCOC(=O)C1=C(Cl)CSC2C(NC(=O)C(NC(C)=O)c3ccccc3)C(=O)N12.Cl (stereo not drawn) [7-[(acetylaminophenylacetyl)amino]-3-chloro-8-oxo-5-thia-1-azabicyclo[4.2.0]oct-2-ene-2-carboxylic acid 2-diethylaminoethyl ester hydrochloride]
In vitro Penetration Rate (apparent flux), HPPs ([1]; human, 10 %, pH 7.4): 0.71 ± 0.05 mg/cm^2/h | half-life at 9.1 mg/mL ([2]; human, plasma): 8 min

CCN(CC)CCOC(=O)C1=C(CSc2nnnn2C)CSC2C(NC(=O)C(NC(=O)N3CCN(CC)C(=O)C3=O)c3ccc(OC(C)=O)cc3)C(=O)N12.Cl (stereo not drawn) [7-[[[[(4-ethyl-2,3-dioxo-1-piperazinyl)carbonyl]amino](4-acetoxyphenyl)acetyl]amino]-3-[[(1-methyl-1H-tetrazol-5-yl)thio]methyl]-8-oxo-5-thia-1-azabicyclo[4.2.0]oct-2-ene-2-carboxylic acid 2-diethylaminoethyl ester hydrochloride]
In vitro Penetration Rate (apparent flux), HPPs ([1]; human, 10 %, pH 7.4): 0.57 ± 0.04 mg/cm^2/h | half-life at 9.1 mg/mL ([2]; human, plasma): 12 min

Cc1onc(-c2ccccc2)c1C(=O)N[C@@H]1C(=O)N2[C@@H]1SC(C)(C)[C@@H]2C(=O)O [Oxacillin, reference compound]
In vitro Penetration Rate (apparent flux), Parent compounds ([1]; human, 10 %, pH 7.4): <0.001 mg/cm^2/h | drug detected in blood, liver, kidney, muscle or brain of mice treated with only the parent drug [4]: No drug was detected

CCN(CC)CCOC(=O)C1N2C(=O)C(NC(=O)[C@H](NC(C)=O)c3ccccc3)C2SC1(C)C.Cl (stereo partly drawn) [6-[D(−)-α-acetamidophenylacetamidopenicillinic acid 2-diethylaminoethyl ester hydrochloride]
Half life of HPPs in plasma ([2]; human, plasma): 10 ± 1 min

CCOC(=O)Cn1nnnc1SCC1=C(C(=O)OCCN(CC)CC)N2C(=O)C(NC(=O)Cc3ccccc3CNC(C)=O)C2SC1.Cl (stereo not drawn) [7-[[[2-(acetylaminomethyl)phenyl]acetyl]amino]-3-[[[1-(ethoxylcarbonylmethyl)-1H-tetrazol-5-yl]thio]methyl]-8-oxo-5-thia-1-azabicyclo[4.2.0]oct-2-ene-2-carboxylic acid 2-diethylaminoethyl ester hydrochloride]
In vitro Penetration Rate (apparent flux), HPPs ([1]; human, 10 %, pH 7.4): 0.52 ± 0.04 mg/cm^2/h | half-life at 9.1 mg/mL ([2]; human, plasma): 9 min

CCN(CC)CCOC(=O)C1=C(CSc2nnnn2C)CSC2C(NC(=O)C(O)c3ccccc3)C(=O)N12.Cl (stereo not drawn) [7-[(hydroxyphenylacetyl)amino]-3-[[(1-methyl-1H-tetrazol-5-yl)thio]methyl]-8-oxo-5-thia-1-azabicyclo[4.2.0]oct-2-ene-2-carboxylic acid 2-diethylaminoethyl ester hydrochloride]
In vitro Penetration Rate (apparent flux), HPPs ([1]; human, 10 %, pH 7.4): 0.75 ± 0.05 mg/cm^2/h | half-life at 9.1 mg/mL ([2]; human, plasma): 10 min

CCN(CC)CCOC(=O)C1N2C(=O)C(NC(=O)C3C(c4ccccc4)=NOC3C)C2SC1(C)C.Cl (stereo not drawn) [6-(5-methyl-3-phenyl-2-isoxazoline-4-carboxamido)penicillinic acid 2-diethylaminoethyl ester hydrochloride]
Amount of parent drug found in Blood [4]: 28 ± 5 µg/g | Amount of parent drug found in Brain [4]: 8 ± 6 µg/g | Amount of parent drug found in Kidney [4]: 16 ± 5 µg/g | Amount of parent drug found in Liver [4]: 18 ± 7 µg/g | Amount of parent drug found in Muscel [4]: 22 ± 5 µg/g | Half life of HPPs in plasma ([2]; human, plasma): 12 ± 1 min

CCN(CC)CCOC(=O)C1N2C(=O)C(NC(=O)[C@H](NC(=O)N3CCNC3=O)c3ccccc3)C2SC1(C)C.Cl (stereo partly drawn) [D-α-[(imidazolidin-2-on-1-yl)carbonylamino]benzylpenicillin 2-diethylaminoethyl ester hydrochloride]
Half life of HPPs in plasma ([2]; human, plasma): 9 ± 1 min
